Assay results from ChEMBL document CHEMBL5365530, “Identification of a Novel, Potent, and Orally Bioavailable Guanidine-Based SHP2 Allosteric Inhibitor from Virtual Screening and Rational Structural Optimization for the Treatment of KRAS Mutant Cancers” (J Med Chem, 2023).

Assays:
[1] = biological target: T1, Tyrosine-protein phosphatase non-receptor type 11 (Homo sapiens, UniProt Q06124); assay: Allosteric Inhibition of H2N-LN(pY)IDLDLV(dPEG8)LST(pY)ASINFQKASINFQK-amide-activated SHP2 (unknown origin) using DiFMUP as substrate pretreated with enzyme for 1 hr followed by substrate addition and measured after 20 mins by fluorescence based analysis
T1 sequence (Q06124 whole entry): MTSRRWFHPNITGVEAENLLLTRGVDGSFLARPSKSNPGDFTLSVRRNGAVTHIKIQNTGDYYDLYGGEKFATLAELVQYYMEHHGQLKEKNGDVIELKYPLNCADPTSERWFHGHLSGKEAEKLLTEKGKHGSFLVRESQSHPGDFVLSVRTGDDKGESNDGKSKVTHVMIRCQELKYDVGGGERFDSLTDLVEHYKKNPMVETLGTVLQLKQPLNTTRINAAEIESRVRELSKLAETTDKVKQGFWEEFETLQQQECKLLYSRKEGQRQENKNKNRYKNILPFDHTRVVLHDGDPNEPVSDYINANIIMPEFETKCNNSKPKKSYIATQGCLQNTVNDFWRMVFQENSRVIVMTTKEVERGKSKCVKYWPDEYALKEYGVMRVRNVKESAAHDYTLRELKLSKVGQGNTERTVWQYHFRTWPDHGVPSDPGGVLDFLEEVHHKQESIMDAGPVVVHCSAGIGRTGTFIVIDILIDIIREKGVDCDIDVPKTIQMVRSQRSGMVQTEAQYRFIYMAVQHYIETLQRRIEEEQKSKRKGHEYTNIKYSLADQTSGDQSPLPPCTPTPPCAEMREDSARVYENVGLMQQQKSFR

[2] = test system: RAW264.7; assay: Cytotoxicity against mouse RAW264.7 cells assessed as cell viability at 10 to 30 uM incubated for 72 hrs by CellTiter-LumiII Luminescent assay; type: toxicity, cell-based; conditions: raw264.7, 72 h, dose 10-30 µM
[3] = test system: KYSE-520 cell line; assay: Antiproliferative activity against human KYSE-520 cells assessed as inhibition of cell growth incubated for 72 hrs by CellTiter-LumiII Luminescent assay; type: functional, cell-based; conditions: KYSE-520, 72 h
[4] = test system: MIA PaCa-2; assay: Induction of apoptosis in human MIA PaCa-2 cells assessed as proportion of necrotic cells at 5 uM incubated for 72 hrs by AnnexinV-FITC/PI staining based flow cytometry (reference value: 0.19%); type: functional
[5] = test system: MIA PaCa-2; assay: Induction of apoptosis in human MIA PaCa-2 cells assessed as proportion of necrotic cells at 10 uM incubated for 72 hrs by AnnexinV-FITC/PI staining based flow cytometry (reference value: 0.19%); type: functional
[6] = biological target: T1, Tyrosine-protein phosphatase non-receptor type 11; assay: Inhibition of SHP2 PTP domain (unknown origin) using DiFMUP as substrate pretreated with enzyme for 20 mins followed by substrate addition and measured for 2 hrs by fluorescence based analysis
[7] = Hepatotoxicity in ICR mouse assessed as increase in plasma ALP level at 100 mg/kg, po administered once every 2 days and measured on day 14; type: toxicity, organism-based; conditions: in vivo, 336 h, time 14 day
[8] = Volume of distribution in ICR mouse at 1 mg/kg, iv measured for 24 hrs by LC-MS/MS analysis; type: ADME, organism-based; conditions: in vivo
[9] = Cmax in ICR mouse at 10 mg/kg, po measured for 24 hrs by LC-MS/MS analysis; type: ADME, organism-based; parameters: time 24 hrs, dose 10 mg/kg, route po; conditions: in vivo
[10] = test system: MIA PaCa-2; assay: Induction of apoptosis in human MIA PaCa-2 cells assessed as proportion of viable cells at 2.5 uM incubated for 72 hrs by AnnexinV-FITC/PI staining based flow cytometry (reference value: 98.19%); type: functional
[11] = test system: MIA PaCa-2; assay: Induction of apoptosis in human MIA PaCa-2 cells assessed as proportion of late apoptotic cells at 5 uM incubated for 72 hrs by AnnexinV-FITC/PI staining based flow cytometry (reference value: 1.36%); type: functional
[12] = test system: MIA PaCa-2; assay: Antitumor activity against human MIA PaCa-2 cells xenografted in BALB/c nude mouse assessed as inhibition of tumor growth at 40 mg/kg, po administered daily for 17 days; type: functional; conditions: time 17 day
[13] = test system: MIA PaCa-2; assay: Induction of apoptosis in human MIA PaCa-2 cells assessed as proportion of viable cells at 10 uM incubated for 72 hrs by AnnexinV-FITC/PI staining based flow cytometry (reference value: 98.19%); type: functional
[14] = test system: MIA PaCa-2; assay: Antiproliferative activity against human MIA PaCa-2 cells harboring KRASG12C mutant assessed as inhibition of cell growth incubated for 72 hrs by CellTiter-LumiII Luminescent assay; type: functional, cell-based; conditions: MIA PaCa-2, 72 h
[15] = Hepatotoxicity in ICR mouse assessed as increase in plasma ALT level at 100 mg/kg, po administered once every 2 days and measured on day 14; type: toxicity, organism-based; conditions: in vivo, 336 h, time 14 day
[16] = AUC in ICR mouse at 1 mg/kg, iv measured for 24 hrs by LC-MS/MS analysis; type: ADME, organism-based; parameters: time 24 hrs, dose 1 mg/kg, route iv; conditions: in vivo
[17] = Oral bioavailability in ICR mouse at 10 mg/kg measured for 24 hrs by LC-MS/MS analysis; type: ADME, organism-based; conditions: in vivo
[18] = test system: MIA PaCa-2; assay: Induction of apoptosis in human MIA PaCa-2 cells assessed as proportion of early apoptotic cells at 5 uM incubated for 72 hrs by AnnexinV-FITC/PI staining based flow cytometry (reference value: 0.26%); type: functional
[19] = Hepatotoxicity in ICR mouse assessed as increase in plasma AST level at 100 mg/kg, po administered once every 2 days and measured on day 14; type: toxicity, organism-based; conditions: in vivo, 336 h, time 14 day
[20] = Half life in ICR mouse at 10 mg/kg, po measured for 24 hrs by LC-MS/MS analysis; type: ADME, organism-based; conditions: in vivo
[21] = biological target: Tyrosine-protein phosphatase non-receptor type 6 (Homo sapiens, UniProt P29350); assay: Inhibition of SHP1 (unknown origin) using DiFMUP as substrate pretreated with enzyme for 20 mins followed by substrate addition and measured for 2 hrs by fluorescence based analysis
Chain of Tyrosine-protein phosphatase non-receptor type 6 (P29350 whole entry): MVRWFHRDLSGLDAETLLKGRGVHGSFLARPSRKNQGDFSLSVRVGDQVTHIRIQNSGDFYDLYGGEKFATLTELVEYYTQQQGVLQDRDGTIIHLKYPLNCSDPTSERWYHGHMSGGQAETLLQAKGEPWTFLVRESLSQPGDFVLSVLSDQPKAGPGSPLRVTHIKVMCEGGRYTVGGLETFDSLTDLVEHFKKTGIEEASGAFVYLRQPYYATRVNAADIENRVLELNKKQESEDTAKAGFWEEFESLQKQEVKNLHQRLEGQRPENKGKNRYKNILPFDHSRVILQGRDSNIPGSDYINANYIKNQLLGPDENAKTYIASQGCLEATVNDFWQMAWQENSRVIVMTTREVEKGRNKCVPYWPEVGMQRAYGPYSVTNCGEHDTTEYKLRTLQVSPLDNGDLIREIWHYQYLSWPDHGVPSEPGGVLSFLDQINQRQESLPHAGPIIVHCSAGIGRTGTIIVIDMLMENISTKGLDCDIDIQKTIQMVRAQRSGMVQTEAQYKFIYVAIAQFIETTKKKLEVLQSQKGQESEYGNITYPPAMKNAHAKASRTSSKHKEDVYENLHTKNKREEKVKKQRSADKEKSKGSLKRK

[22] = Clearance in ICR mouse at 1 mg/kg, iv measured for 24 hrs by LC-MS/MS analysis; type: ADME, organism-based; conditions: in vivo
[23] = Toxicity against BALB/c nude mouse xenografted with human MIA PaCa-2 cells assessed as animal's death at 20 to 40 mg/kg, po administered daily for 17 days; type: organism-based; conditions: in vivo, 408 h, dose 20-40 mg/kg, time 17 day
[24] = test system: MIA PaCa-2; assay: Induction of apoptosis in human MIA PaCa-2 cells assessed as proportion of late apoptotic cells at 2.5 uM incubated for 72 hrs by AnnexinV-FITC/PI staining based flow cytometry (reference value: 1.36%); type: functional
[25] = test system: MIA PaCa-2; assay: Induction of apoptosis in human MIA PaCa-2 cells assessed as proportion of necrotic cells at 2.5 uM incubated for 72 hrs by AnnexinV-FITC/PI staining based flow cytometry (reference value: 0.19%); type: functional
[26] = Toxicity against BALB/c nude mouse xenografted with human MIA PaCa-2 cells assessed as effect on body weight at 20 to 40 mg/kg, po administered daily for 17 days; type: organism-based; conditions: in vivo, 408 h, dose 20-40 mg/kg, time 17 day
[27] = test system: MIA PaCa-2; assay: Induction of apoptosis in human MIA PaCa-2 cells assessed as proportion of late apoptotic cells at 10 uM incubated for 72 hrs by AnnexinV-FITC/PI staining based flow cytometry (reference value: 1.36%); type: functional
[28] = Tmax in ICR mouse at 10 mg/kg, po measured for 24 hrs by LC-MS/MS analysis; type: ADME, organism-based; conditions: in vivo
[29] = test system: MIA PaCa-2; assay: Induction of apoptosis in human MIA PaCa-2 cells assessed as proportion of early apoptotic cells at 10 uM incubated for 72 hrs by AnnexinV-FITC/PI staining based flow cytometry (reference value: 0.26%); type: functional
[30] = Half life in ICR mouse at 1 mg/kg, iv measured for 24 hrs by LC-MS/MS analysis; type: ADME, organism-based; conditions: in vivo
[31] = test system: MIA PaCa-2; assay: Induction of apoptosis in human MIA PaCa-2 cells assessed as proportion of early apoptotic cells at 2.5 uM incubated for 72 hrs by AnnexinV-FITC/PI staining based flow cytometry (reference value: 0.26%); type: functional
[32] = AUC in ICR mouse at 10 mg/kg, po measured for 24 hrs by LC-MS/MS analysis; type: ADME, organism-based; parameters: dose 10 mg/kg, time 24 hrs, route po; conditions: in vivo
[33] = test system: MIA PaCa-2; assay: Induction of apoptosis in human MIA PaCa-2 cells assessed as proportion of viable cells at 5 uM incubated for 72 hrs by AnnexinV-FITC/PI staining based flow cytometry (reference value: 98.19%); type: functional

For `N/C(=N\c1cnccn1)N1CCN(c2cnc(-c3cccc(Cl)c3Cl)c(N)n2)CC1`, the IC50 [1] was 396 nM.

In the case of `COc1cc(/N=C(\N)N2CCN(c3cnc(-c4cccc(Cl)c4Cl)c(N)n3)CC2)ccc1C#N`, the Activity [2] is reported as “Non-Toxic”, the IC50 [3] is reported as 1800 nM and the Activity [4] is reported as 0.15%. The Activity [5] was 0.22%, the IC50 [6] was > 30 µM and the Activity [7] was “Non-Toxic”. The Vd [8] was 8.4 L/kg, the Cmax [9] was 1090 nM and the Activity [10] was 88.63%. The Activity [11] was 12.55%, the “inhibition (INH)” value [12] was 48% and the Activity [13] was 63.59%. The IC50 [14] was 6.8 µM, the Activity [15] was “Non-Toxic” and the AUC at 24 h [16] was 0.651 µM·h. The bioavailability [17] was 66.3%, the Activity [18] was 7.47% and the IC50 [1] was 17.7 nM. The Activity [19] was “Non-Toxic”, the half-life [20] was 120 min and the IC50 [21] was > 30 µM. For the same molecule, the clearance [22] was 52.2 mL/min/kg, the Activity [23] was “Non-Toxic” and the Activity [24] was 6.18%. The Activity [25] was 0.21%, the Activity [26] was “Non-Toxic” and the Activity [27] was 23.65%. For the same molecule, the Tmax [28] was 48 min, the Activity [29] was 12.54% and the half-life [30] was 114 min. The Activity [31] was 4.98%, the AUC at 24 h [32] was 4.32 µM·h and the Activity [33] was 79.83%.

For `N=C(N)N1CCN(c2cnc(-c3cccc(Cl)c3Cl)c(N)n2)CC1`, the IC50 [1] was 414 nM.

In the case of `CN/C(=N\c1ccc(C#N)cc1)N1CCN(c2cnc(-c3cccc(Cl)c3Cl)c(N)n2)CC1`, the IC50 [1] is reported as 2000 nM.

With `N/C(=N\c1ccncc1)N1CCN(c2cnc(-c3cccc(Cl)c3Cl)c(N)n2)CC1` the IC50 [1] was 64.5 nM.

Molecule `N/C(=N\C(=O)c1ccncc1)N1CCN(c2cnc(-c3cccc(Cl)c3Cl)c(N)n2)CC1` has an IC50 [1] of 4850 nM.

Work on `N/C(=N\c1ncccn1)N1CCN(c2cnc(-c3cccc(Cl)c3Cl)c(N)n2)CC1` yielded an IC50 [1] of 715 nM.

`N/C(=N\c1ccc(C(F)(F)F)cc1)N1CCN(c2cnc(-c3cccc(Cl)c3Cl)c(N)n2)CC1` showed an IC50 [1] of 92.2 nM.

Molecule `N/C(=N\c1ccccn1)N1CCN(c2cnc(-c3cccc(Cl)c3Cl)c(N)n2)CC1` has an IC50 [1] of 184 nM.

In the case of `COc1cccc(/N=C(\N)N2CCN(c3cnc(-c4cccc(Cl)c4Cl)c(N)n3)CC2)c1`, the IC50 [1] is reported as 30.4 nM.

`N#Cc1cc(/N=C(\N)N2CCN(c3cnc(-c4cccc(Cl)c4Cl)c(N)n3)CC2)cs1` gave an IC50 [1] of 72.8 nM.

In the case of `N#Cc1ccc(/N=C(\N)N2CCN(c3cnc(-c4cccc(Cl)c4Cl)c(N)n3)CC2)cc1`, the IC50 [1] is reported as 34.6 nM.

For `CNC(=O)c1ccc(/N=C(\N)N2CCN(c3cnc(-c4cccc(Cl)c4Cl)c(N)n3)CC2)cc1`, the IC50 [1] was 3210 nM.

Work on `N#Cc1ccc(/N=C(\N)N2CCN(c3cnc(-c4cccc(Cl)c4Cl)cn3)CC2)cc1` yielded an IC50 [1] of 3760 nM.

`NC(=O)N1CCN(c2cnc(-c3cccc(Cl)c3Cl)c(N)n2)CC1` showed an IC50 [1] of 6360 nM.
